These results are taken from PubChem BioAssay AID1996.

As a reminder, the kinetic solubility is solubility judged after dilution from a stock solution rather than from solid.

Values after ≈ are worked out from the molar mass of the structure shown.

For this data set the following is noted: buffer; pH 7.4; 200.0 µM.
`CCC(=O)Nc1ccc(-c2ccc(NC(=O)CC)c(OC)c2)cc1OC` returned a solubility (kinetic) of 7.1 µg/mL (≈ 19.9 µM). For the molecule `Cc1ccnc(NC(=O)c2cccc(S(=O)(=O)Nc3ccc(C)cc3C)c2)c1`, the kinetic solubility is 10.7 µg/mL (≈ 27.1 µM). This solubility kinetic is about 1.5-fold higher than that of the molecule before. Turning to `COc1ccc(Cc2nc3ccccc3[nH]c2=O)cc1`, the solubility (kinetic) is 4.7 µg/mL (≈ 17.6 µM). In the case of `O=C(O)[C@@H]1Cc2ccccc2N1` it was 6.6 µg/mL (≈ 40.4 µM). As to `Nc1nc(SCC(=O)Nc2cccnc2Cl)n[nH]1`, the solubility (kinetic) was above 42.7 µg/mL. In the case of `CCCCN1C(=O)C(=O)N(CC(=O)Nc2ccc(OC(F)(F)F)cc2)C1=O` it was 6.6 µg/mL (≈ 17 µM); in that of `O=C(Nc1cccc(C(F)(F)F)c1)Nc1ccon1`, 9.9 µg/mL (≈ 36.5 µM). `O=C(NC12CC3CC(CC(C3)C1)C2)c1cc([N+](=O)[O-])ccc1Cl` showed a solubility (kinetic) of 0.6 µg/mL (≈ 1.79 µM). Against the preceding molecule, the solubility kinetic is about 16-fold lower. In the case of `S=C(NCc1cccnc1)Nc1ccc(Cl)cc1Cl` it was above 46.8 µg/mL; in that of `CN1CCCC(OC(=O)c2ccccc2F)C1.Cl` (configuration not stated), 39.7 µg/mL; in that of `Cc1cccc(C)c1NC(=O)CNC(=O)COC(=O)c1ccc(Cl)s1`, 23.9 µg/mL (≈ 62.8 µM). `COc1cc2c(cc1OC)C(C)N(C(=O)c1ccc(C)o1)CC2` (configuration not stated) showed a solubility (kinetic) above 47.3 µg/mL. Regarding `CCOC(=O)c1cn2nc(Oc3ccccc3)ccc2n1`, the solubility (kinetic) was above 42.5 µg/mL.

Turning to `Cn1c(N2CCOCC2)cc(=O)n(C)c1=O`, the solubility (kinetic) came to 29.3 µg/mL (≈ 130 µM). In the case of `Cc1sc(NC(=O)c2cccnc2)nc1-c1ccccc1` it was 1.1 µg/mL (≈ 3.72 µM).

`O=C1CCC(C(=O)Nc2ccccc2N2CCOCC2)=NN1`: the solubility (kinetic) is above 45.3 µg/mL. `COc1ccc(OC)c(S(=O)(=O)N2CCNCC2)c1`: the solubility (kinetic) was determined as 38.1 µg/mL (≈ 133 µM). `O=C1NC(=O)c2cc(Oc3ccc([N+](=O)[O-])cc3)ccc21` had a solubility (kinetic) of 2.5 µg/mL (≈ 8.8 µM).

Molecule `CCN1C/C(=N\S(=O)(=O)/N=C2\CN(CC)C(=O)N2CC)N(CC)C1=O` showed a solubility (kinetic) above 55.9 µg/mL.

`NS(=O)(=O)c1ccc(CCNC(=O)c2ccc(Cl)c(S(=O)(=O)N3CCCCC3)c2)cc1` showed a solubility (kinetic) of 12.1 µg/mL (≈ 24.9 µM). In turn, `O=C(O)CC(c1ccc(F)cc1F)N1Cc2ccccc2C1=O` (configuration not stated) yielded a solubility (kinetic) above 47.6 µg/mL. As to `Cc1ccc(OCC(=O)Nc2cccnc2Cl)cc1C`, the kinetic solubility turned out to be 0.8 µg/mL (≈ 2.75 µM).

`Nc1ccc2c(c1)C(=O)c1ccccc1-2` showed a kinetic solubility of 27.9 µg/mL (≈ 143 µM). In the case of `CN(C)c1ccc(NC(=O)C(=O)NCCOc2ccccc2)cc1` it was 0.7 µg/mL (≈ 2.14 µM). In the case of `N#Cc1ccc(Oc2c(Cl)cncc2Cl)cc1` it was 23.2 µg/mL (≈ 87.5 µM); in that of `Cc1ccc(NC(=O)CSc2ncccn2)cc1F`, above 41.6 µg/mL. `CCN(C(=O)COC(=O)c1cccnc1)c1cccc2ccccc12`: the kinetic solubility is above 50.2 µg/mL. As for `Cc1onc(-c2ccccc2)c1C(O)c1ccc(F)cc1` (configuration not stated), the figure is above 42.5 µg/mL; as for `FC(F)(F)c1cccc(CN2CCN(c3ncccn3)CC2)c1`, 8.7 µg/mL (≈ 27 µM). Consider `CC1CC1C(=O)OCC(=O)NCc1ccccc1` (configuration not stated), for which the kinetic solubility is above 37.1 µg/mL. In the case of `Cc1ccc(NC(=S)N2CCC(NC(=O)c3ccc(C)cc3)CC2)cc1` it was 2.2 µg/mL (≈ 5.99 µM).

With `Cc1nc(-c2cccc(Br)c2)ccc1C(=O)O`, the solubility (kinetic) amounted to 43.2 µg/mL (≈ 148 µM).

With `NC(=O)c1ccc(NC(=O)COC(=O)c2cc3c(s2)CCC3)cc1`, the solubility (kinetic) is 8.6 µg/mL (≈ 25 µM). As for `COc1ccccc1C(=O)Nc1ccc(Br)cc1C`, the figure is below 0.7 µg/mL; as for `CC(C)CNS(=O)(=O)c1ccc(CCC(=O)N2CCCC2)cc1`, above 50.8 µg/mL. In turn, `Cc1cc(=O)n(C)c2ccccc12` yielded a kinetic solubility above 26 µg/mL. As for `COc1ccc(CCC(C)NCc2cc(OC)cc(OC)c2)cc1` (configuration not stated), the figure is 38.7 µg/mL (≈ 117 µM); as for `O=C1CSC(c2ccc(F)cc2)N1c1ccccc1F` (configuration not stated), 36.8 µg/mL (≈ 126 µM). `CCC(C)NC(=O)CSc1ncnc2sccc12` (configuration not stated) registered a kinetic solubility above 42.2 µg/mL. `O=C(Nc1cccc([N+](=O)[O-])c1)c1ccccc1` had a solubility (kinetic) of 9.6 µg/mL (≈ 39.6 µM).

The molecule `Cc1ccccc1N1CCN(Cc2ccc3c(c2)OCO3)CC1` registered a kinetic solubility of 21.5 µg/mL (≈ 69.3 µM). `O=C(CSc1nccc(=O)[nH]1)c1ccco1` yielded a solubility (kinetic) above 35.4 µg/mL.

On to `CC(=O)Nc1c(C)nn(-c2ccc([N+](=O)[O-])cc2)c1C`, for which the solubility (kinetic) was above 41.1 µg/mL. `Cc1ccc(-c2nc(C(=O)O)cs2)cc1` gave a solubility (kinetic) of 29.5 µg/mL (≈ 135 µM). As to `CC(C)(C)n1cnc2cc(NC(=O)c3cccs3)ccc21`, the solubility (kinetic) was above 44.9 µg/mL.

In the case of `O=[N+]([O-])c1ccc2c(c1)c1ccccc1n2CCO`, the solubility (kinetic) came to 6.2 µg/mL (≈ 24.2 µM). `CC(C)(C)N(Cc1ccccc1)C(=O)COC(=O)C1CC1` had a kinetic solubility above 43.4 µg/mL. In the case of `Cc1ccc(C(=O)Nc2ccc3c(c2)C(=O)N(CC2CCCO2)C3=O)cc1` (configuration not stated) it was 1 µg/mL (≈ 2.74 µM). As for `CN(C)CCNC(=O)C(=O)C1C(=O)Nc2ccccc21` (configuration not stated), the figure is above 41.3 µg/mL; as for `C/C(O)=c1/c(=O)nc2cccc3c2=c1c1ccccc1c3=O`, below 0.6 µg/mL. In the case of `CCc1sc(C(=O)N2CCCN(C)CC2)cc1Br` it was 46.5 µg/mL (≈ 140 µM); in that of `Cc1cccc(NC(=O)Cc2c(F)cccc2Cl)n1`, above 41.8 µg/mL.
